Data set [1] deals with T1, GrA (Homo sapiens, UniProt P12544).
T1 construct: made in house; host or cells: Pichia pastoris
T1 sequence (P12544 29-262): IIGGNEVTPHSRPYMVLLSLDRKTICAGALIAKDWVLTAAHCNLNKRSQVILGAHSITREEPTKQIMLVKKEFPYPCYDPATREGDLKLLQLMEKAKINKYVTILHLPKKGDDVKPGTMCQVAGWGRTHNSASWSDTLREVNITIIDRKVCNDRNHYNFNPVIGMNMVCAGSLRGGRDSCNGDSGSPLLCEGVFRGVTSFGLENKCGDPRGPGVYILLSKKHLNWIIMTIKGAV
As to the kind of experiment: In-gel detection of recombinant GrA with SK15.5 (SDS-PAGE). The format is binding. As to conditions: SK15I 1 μM, 1 h, 37 °C, then SK15.5 500 nM 1 h. How it is done:
Next, we tested the utility of our fluorescent probe for the in-gel detection of active GrA in test samples. […] We then ran a simple SDS-PAGE assay to detect labeled GrA (Figure 4A). […] In our hands, the probe bound to the enzyme, as indicated by the fluorescent 35 kDa species, after the minimal incubation time (5 min). […] The optimal concentration was 500 nM (strong signal) (Figure 4B).
(A) Incubation time of SK15.5 with enzyme optimization. […] (D) GrA in-gel detection in NK92 cell lysates. […] The results are representative of at least 2 replicates.
In contrast to the closely related GrB, GrH, GrM, and GrK, GrA is a homodimer formed by stable disulfide-linked subunits.[26] Since the subunits are oriented in opposite directions, the surrounding area may form an exosite.[26]
In the incubation time optimization assay, the enzyme and probe concentrations were constant (250 nM), and the incubation time ranged from 0 to 120 min. […] Enzyme was incubated with probe in a volume of 80 μL, followed by the reduction with 40 μL of 3 × SDS/DTT for 5 min at 95 °C. Samples were centrifuged (3 min, 4500g), and 40 μL of each sample was run on 4–12% Bis-Tris 10-well gels (Invitrogen). The first well was loaded with 2 μL of the protein marker PageRuler Plus Prestained Protein Ladder (Thermo Scientific). Electrophoresis was conducted at 165 V for 37 min at room temperature. […] Total sample volume was 80 μL, to which 40 μL of 3× SDS/DTT was added and boiled for 5 min at 95 °C. Samples were centrifuged (3 min, 4500g), and 40 μL of each sample was run on 4–12% Bis-Tris 10-well gels (Invitrogen). Each form of the enzyme without SK15.5 and probe itself were run as controls. The first well was loaded with 2 μL of protein marker PageRuler Plus Prestained Protein Ladder (Thermo Scientific). Electrophoresis and membrane transfer were conducted in the same manner as above.

In a further data set the target is T2, GrK (Homo sapiens, UniProt P49863).
T2 construct: made in house; host or cells: Pichia pastoris
T2 sequence (P49863 27-264): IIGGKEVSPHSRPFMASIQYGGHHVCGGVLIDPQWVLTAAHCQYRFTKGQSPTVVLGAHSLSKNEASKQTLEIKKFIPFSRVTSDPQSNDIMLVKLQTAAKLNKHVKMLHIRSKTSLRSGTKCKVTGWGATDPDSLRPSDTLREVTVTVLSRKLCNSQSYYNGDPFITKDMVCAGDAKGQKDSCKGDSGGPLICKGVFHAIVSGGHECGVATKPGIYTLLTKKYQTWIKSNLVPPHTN
Put plainly: Residual activity assay, GrK. The format is biochemical. As to conditions: 488 nM GrK preincubated with 10 μM compound 30 min 37 °C; 200 μM GrKref. How it is done: (§1) We wondered whether the selectivity of our SK15-based molecules for GrA would be maintained by substrate structure modifications, such as replacing ACC with a diphenyl phosphonate warhead and changing the N-terminus from acetyl to the cyanine derivative Cy5.
(§2) As a control, enzymes without inhibitor and probe were tested.

For another data set, the system named is GrM. Put plainly: Residual activity assay, GrM. In kind it is biochemical, human. As to conditions: 74 nM GrM preincubated with 10 μM compound 30 min 37 °C; substrate Ac-Lys-Val-Pro-Leu-ACC. How it is done:
as §1, §2

Another data set deals with T3, GrB (Homo sapiens, UniProt P10144).
T3 construct: made in house; host or cells: Pichia pastoris
T3 sequence (P10144 21-247): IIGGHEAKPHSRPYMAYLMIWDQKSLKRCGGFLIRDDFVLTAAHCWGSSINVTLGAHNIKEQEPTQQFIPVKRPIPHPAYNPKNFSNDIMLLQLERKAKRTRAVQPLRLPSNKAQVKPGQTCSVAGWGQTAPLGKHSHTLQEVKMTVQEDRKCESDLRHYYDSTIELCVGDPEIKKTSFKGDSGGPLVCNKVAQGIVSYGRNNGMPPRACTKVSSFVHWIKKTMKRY
Put plainly: Residual activity assay, GrB. In kind it is biochemical. As to conditions: 18 nM GrB preincubated with 10 μM compound 30 min 37 °C; 200 μM GrBref. How it is done: as §1, §2

In a further data set the test system is hNE. As to the kind of experiment: Residual activity assay, hNE. In kind it is biochemical, human. As to conditions: 3.3 nM hNE preincubated with 10 μM compound 30 min 37 °C; substrate Ac-Arg(NO)2-Glu(Bzl)-Oic-Abu-ACC. On the procedure: as §1, §2
Data set [2] deals with T1, GrA. Put plainly: Second-order inhibition rate constant kobs/I toward GrA, pseudo-first-order conditions. The format is biochemical. As to conditions: GrA; versus 2000 M^–1 s^–1. How it is done:
We calculated the apparent second-order rate constants for inhibition (kobs(app)/I) of GrA-mediated SK15I under pseudo first-order conditions by serially diluting the new inhibitor in the range of 714–333 nM with a constant optimal substrate (SK15) concentration of 10 μM (Figure 3B).
The second-order inhibition rate constant (kobs/I expressed in M^–1 s^–1) toward GrA was measured under pseudo-first-order kinetic conditions. Ten microliters of substrate (SK15) was mixed with varying inhibitor or probe concentrations and incubated at 37 °C for 15 min. […] Experiments are presented as the average of at least three experiments with standard deviation.

For another data set, the system named is PR3. Put plainly: Residual activity assay, PR3. In kind it is biochemical. As to conditions: 3.4 nM PR3 preincubated with 10 μM compound 30 min 37 °C; substrate Ac-Glu(O-Bzl)-Lys(Ac)-Hyp(Bzl)-Nva-ACC. On the procedure: as §1, §2
The next data set relates to MDA-MB-231 cells. As to conditions: MDA-MB-231, 24 h, MTS at 490 nm, 1 nM to 10 μM tested, duplicate.
The next data set deals with GrA in NK92 cells. Put plainly: SK15.5 cell membrane permeability assay / GrA labeling in live NK92 cells. In kind it is cell-based, human. As to conditions: SK15I 10 μM, 1 h, prior to 1 μM SK15.5. How it is done: (B) SK15.5 probe cell permeability. […] The results represent two biological replicates.
We noticed a strongly labeled species within 30 min, and the intensity increased until 2 h (Figure 5B). […] As an additional control, immunolabeling was performed and confirmed the selective binding of the probe with GrA (for full size blots, please see Figure S3).
As a control, GrA was preinhibited with 10 μM (final concentration) SK15I and incubated for 1 h at 37 °C, and untreated samples were simultaneously incubated. At the end of every time point, the cells were centrifuged, washed twice with DPBS, centrifuged and treated with 100 μL of 1× SDS/DTT solution. Afterward, the samples were sonicated (10 kHz for 10 s) and loaded onto a 4–12% Bis-Tris 10-well gel (Invitrogen). SDS-PAGE was run at 165 V for 37 min, and membrane transfer (10 V, 60 min) was subsequently performed.

In data set [3] the test system is GrA. Put plainly: Residual activity assay, GrA preinhibited with SK15I or SK15.5. The format is biochemical, human. As to conditions: substrate SK15; preincubation 30 min, 37 °C. How it is done: as §1, §2

For MeOSuc-Tic-Gly-Oic-Arg^P(OPh)2 [SK15I], the “effect of preinhibition with inhibitor on SK15.5 probe binding to GrA (in words)” value on GrA [1] is recorded as “prevented probe binding”. In addition, the “inhibition of GrK” value on GrK is listed as “less than 20%”. Besides, in the data set with GrM, the “inhibition of GrM” value was “less than 20%”. Besides, the “inhibition of GrB” value at GrB is “less than 20%”. The “inhibition of hNE” value with hNE was “less than 20%”. The “kobs/I relative to the reference inhibitor” value at GrA [2] is listed as “approximately 85 fold”. Also, in the data set with PR3, the “inhibition of PR3” value was “less than 20%”. Also, the “concentration above which cytotoxic” value in the data set with MDA-MB-231 cells was over 10 µM. Moreover, the “effect of inhibitor pretreatment on SK15.5 probe binding in live cells (in words)” value with GrA in NK92 cells was “substantial decrease in probe binding”. Moreover, the “residual GrA activity after preinhibition (in words)” value with GrA [3] is given as “completely blocked”.

For the origin of these results see publication PMC7590976, “Detection of Active Granzyme A in NK92 Cells with Fluorescent Activity-Based Probe” (Journal of Medicinal Chemistry, 2020).
